In patent US7868135B2, “Compositions of lipopeptide antibiotic derivatives and methods of use thereof” (priority 2003, dated 2011):

Tests used:
[1] = Acute toxicity, maximum tolerated dose (MTD); settings: Swiss CD1, mouse, in vivo, iv
Procedure: Another measure of toxicity is the maximum tolerated dose (MTD), which is determined as a dose level that is not accompanied by mortality or life-threatening toxicity. The dose ratio between toxic and therapeutic effect is the therapeutic index. […] The data obtained from these cell culture assays and animal studies can be used in formulating a dosage range that is not toxic for use in human subjects. […] The dosage may vary within this range depending upon the dosage form employed and the route of administration utilized. The exact formulation, route of administration and dosage can be chosen by the individual physician in view of the patient's condition or need thereof (see, e.g., Fingl et al., 1975, In: The Pharmacological Basis of Therapeutics, Chapter 1).
For example, to examine acute toxicity, lipopeptide antibiotics of the invention can be tested in an animal model, such as Swiss CD1 mice, to determine the MTD. In certain embodiments, the animals used to test toxicity of a particular compound can be approximately 5-6 weeks old at the start of the experiment and weigh 22-26 g. The lipopeptides may be administered intravenously (i.v.) into, for example, the caudal tail vein at dose levels that range from about 50 to about 500 mg/kg, or from about 75 to about 250 mg/kg, or from about 100 to about 200 mg/kg, or at a dose range at or below 100 mg/kg. The animals are generally observed immediately after administration, 1-2 hours post administration, 5-8 hours post administration, and once daily thereafter. Observations include both the activity level of the mouse as well as any physical side effects from the administered dose. The animal weight is recorded on day 0 (immediately before dosing) and on day 7.

[2] = tested on: S. pneumoniae (SPN 0032, ATCC 10813); assay: Intraperitoneal murine model of protection against infection (ED50, Table 21); type: in vivo, Streptococcus pneumoniae; settings: Swiss CD1 mice infected i.p., compound i.v.
Text: (§1) A variety of in vivo models may be used to assess the antimicrobial properties of lipopeptide derivative compounds of this disclosure. For example, antimicrobial compounds of the instant disclosure may be tested for efficacy by measuring a compound's ability to protect a mouse against a microbial infection, such as an infection or disease caused by or related to Gram-positive bacteria, including Staphylococcus aureus, Streptococcus pneumoniae, and Enterococcus faecalis. […] A certain period after infection, mice are then individually treated, for example intravenously (i.v.), with a lipopeptide derivative of this disclosure.
(§2) Antimicrobial lipopeptide derivatives of the instant invention were tested for antimicrobial activity against Gram-positive bacteria in an intraperitoneal (i.p.) murine model (i.e., bacteria were injected i.p. and lipopeptide compounds were administered intravenously (i.v.)). Mice were infected with Staphylococcus aureus, Streptococcus pneumoniae, or Enterococcus faecalis, which were prepared as follows: S. aureus Smith (SAU0017, ATCC 19636) were grown in culture overnight on trypticase soy broth, harvested and then resuspended in fresh media containing 5% mucin (Sigma Chemical Co.); S. pneumoniae (SPN 0032, ATCC 10813) were grown overnight on blood agar plates and re-suspended in 0.9% sterile saline; and E. faecalis EFS0040 (clinical isolate) were grown overnight in culture on blood heart infusion broth, washed and resuspended in 0.9% saline and mixed with equal volume of sterile fecal rat extract. Swiss CD1 mice were each infected i.p. with bacteria at the following doses: S. aureus at 10^6 CFU/mouse; S. pneumoniae at 10^2 CFU/mouse; or E. faecalis at 10^7.5 CFU/mouse. […] The ED50 for each compound was calculated using the method of Reed and Meunch (Am. J. Hyg. 27: 493, 1938).

[3] = tested on: S. aureus Smith (SAU0017, ATCC 19636); assay: as above; type: in vivo, Staphylococcus aureus; settings: Swiss CD1 mice infected i.p., compound i.v.
Text: as §1, §2

[4] = In vivo half-life after single i.v. administration, mice; settings: female, Swiss CD1, mouse, plasma, iv, 10 mg/kg
Procedure: (§3) Yet other exemplary in vivo models can be used to characterize the pharmacokinetics and pharmacodynamic parameters of antimicrobial compounds of this disclosure. Some parameters that can be measured include an in vivo half-life of a compound, elimination rate and clearance, volume of distribution, and bioavailability. For example, briefly, compounds can be administered as a single i.v. or oral (p.o.) dose in mice or rats. At various time points (ranging from 1 minute to 72 hours), blood from treated animals is collected and the concentration of lipopeptide derivative in the ex vivo plasma can be quantified by, for example, liquid chromatography with mass spectrometric detection (LC/MS). After quantification, pharmacokinetics parameters can be calculated using methods known in the art, such as a one compartment model with mono-exponential decay and linear regression analysis (see, e.g., Fantin et al., Antimicrob. Agents Chemotherap. 35: 1413. 1991).
(§4) A pharmacokinetic parameter that can be measured, and which aids in determining efficacy, after a single i.v. administration of an antimicrobial lipopeptide derivative of the instant disclosure is the systemic half-life of the compound. Briefly, test compounds were dissolved in a 5% mannitol solution (pH was then adjusted) to a concentration of 1 mg/mL (w/v). A single intravenous injection in the lateral caudal vein of Swiss CD1 mice (5 to 6 weeks old, female) or Sprague Dawley rats (male) was used to administer the lipopeptide derivative at a final dose of 10 mg/kg. At various time points (ranging from about 4 minutes to about 24 hours for mice, and 48 or 72 hours for rats) mice were sacrificed and blood was harvested. The concentration of lipopeptide derivative in ex vivo plasma was quantified using liquid chromatography (LC) with mass spectrometric detection (MS).

[5] = tested on: Staphylococcus aureus; type: cell-based; settings: for Post Antibiotic Effect (hours) 0.5 × MIC: exposure one hour at 0.5 × MIC, S. aureus log phase; for Post Antibiotic Effect (hours) 1 × MIC: exposure one hour at 1 × MIC; for Post Antibiotic Effect (hours) 2 × MIC: exposure one hour at 2 × MIC; for Post Antibiotic Effect (hours) 4 × MIC: exposure one hour at 4 × MIC
Procedure: An exemplary pharmacokinetic parameter to aid in characterizing the properties of lipopeptide derivative compounds of the disclosure is post-antibiotic effect (PAE) of a lipopeptide derivative. For example, a bacterial culture with an initial count of 10^6 to 10^7 colony forming units per ml (CFU/ml) is treated with a certain concentration of lipopetide derivative for a certain time and a parallel (control) culture is left untreated. After treatment, the lipopetide derivative is removed from the culture (e.g., by dilution 1:1000 in fresh, lipopetide derivative-free medium), and the untreated culture is manipulated in the same way. Then the cultures are further incubated and monitored for bacterial growth over time. […] By way of background and not wishing to be bound by theory, a lipopeptide derivative having a measurable PAE activity will likely provide additional time for the host immune system to remove bacteria that might have survived antibiotic treatment and reproduced after the antibiotic is degraded, removed or filtered from the circulatory system. A longer PAE can influence the clinical outcome of antimicrobial therapy (i.e., a lower dose of a lipopetide derivative may be used to treat an infection or the frequency of a dosing regimen can be reduced).
After removal of the lipopeptide compounds, bacterial titre was determined each hour to monitor bacterial re-growth. The PAE duration is defined as the difference in time required for antimicrobial exposed bacterial cells versus unexposed bacterial cells to achieve an increase of 1 log10 unit in CFU/mL.

[6] = in vivo; settings: male, Sprague Dawley, rat, plasma, iv, 10 mg/kg
Procedure: as §3, §4

[7] = tested on: Staphylococcus aureus (MSSA); settings: 24 h
In short: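 Broth microdilution MIC per NCCLS M7-A6 with doubling serial dilutions, in cation-adjusted Mueller-Hinton broth supplemented with 0.625 mM calcium.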

[8] = tested on: E. faecalis EFS0040 (clinical isolate); assay: Intraperitoneal murine model of protection against infection (ED50, Table 21); type: in vivo, Enterococcus faecalis; settings: Swiss CD1 mice infected i.p., compound i.v.
Text: as §1, §2

[9] = tested on: Streptococcus pneumoniae (SPN032, ATCC 1081); assay: Intranasal murine lung infection model; type: in vivo; settings: Swiss CD1 mice, i.n. S. pneumoniae, i.v. treatment at 3, 24 and 48 hours post-infection, deaths over ten days
Procedure: Other exemplary in vivo models of infection that may be used to assess, for example, the efficacy of an antimicrobial lipopeptide of the instant disclosure include the following: (A) a mouse (murine) model of lung infection (pneumonia) wherein the bacterial infection is administered intranasally (i.n.); (B) a murine thigh muscle model wherein the bacterial infection is administered intramuscularly (i.m.) in normal or neutropenic (immunocompromised) mice; and (C) a combination murine thigh muscle model (i.m. infection)/lung (i.n.) infection.
Antimicrobial lipopeptide derivatives of the instant invention were tested for antimicrobial activity against Gram-positive bacteria in an intranasal (i.n.) murine lung infection model (i.e., bacteria were innoculated i.n. and lipopeptide compounds were administered i.v.). Streptococcus pneumoniae (SPN032, ATCC 1081) were grown on 5% sheep blood agar plates for 24 h at 37° C., harvested and then resuspended in 0.9% saline. A group of eight Swiss CD1 mice were sedated with 2% isoflurane, and each was infected i.n. dropwise to the nares with 50 μl of the prepared bacterial inoculum (i.e., a dose of about 10^6 CFU/mouse). […] The ED50 (mg/kg) for each compound was calculated using the method of Reed and Meunch (Am. J. Hyg. 27: 493, 1938).

[10] = tested on: Streptococcus pneumoniae (SPN0002); assay: Lung infection model in neutropenic mice; type: in vivo
Procedure: Antimicrobial lipopeptide derivatives of the instant invention were tested for antimicrobial activity against Gram-positive bacteria in an intranasal (i.n.), immunocomprimised murine lung infection model (i.e., bacteria were innoculated i.n. and lipopeptide compounds were administered i.v.). Streptococcus pneumoniae (SPN0002) were grown on 5% sheep blood agar plates for 24 h at 37° C., harvested and then resuspended in 0.9% saline. A group of three to four Swiss CD1 mice were rendered neutropenic by administration of cyclophosphamide (Sigma Chemical Co.; 150 mg/kg, i.p.) on day −4 and −1 before infection. At time −18 to −24 hours, each mouse was infected i.n. dropwise via the nares with 50 μl of the prepared bacterial inoculum (i.e., a dose of about 5×10^6 CFU/mouse). At 18 to 24 hours post-infection, the groups of mice received i.v. (1) a lipopeptide derivative formulated in a 5% D-mannitol solution at a dose of about 1 mg/kg, 3 mg/kg, 10 mg/kg, or 30 mg/kg; (2) the 5% mannitol vehicle alone at a dose volume of 10 mL/kg; or (3) a known antibiotic, such as ampicillin, at a similar dose as the lipopeptide compounds. At 18 to 24 hours post-antibiotic treatment, mice were sacrificed and lungs harvested. Lungs were sampled by spreading homogenates on blood agar plates and incubating for 24 h at 37° C., and then counting the number of CFU. The EKill (killing effect; i.e., log10 CFU/lung reduction as compared to CFU count at intial treatment time) and the EMax (maximum reduction effect; i.e., log10 CFU/lung reduction as compared to CFU count of control at 24 hours) for each compound was calculated.

Compound | MTD at 7 days [1] | ED50 in Mice, S. pneumoniae (SPN0032) [2] | ED50 in Mice, S. aureus (SAU0017) [3] | half-life [4] | MIC used for the PAE experiment [5] | Post Antibiotic Effect (hours) 0.5 × MIC [5] | Post Antibiotic Effect (hours) 1 × MIC [5] | Post Antibiotic Effect (hours) 2 × MIC [5] | Post Antibiotic Effect (hours) 4 × MIC [5] | half-life [6] | MIC [7] | ED50 in Mice, E. faecalis (EFS0040) [8] | ED50 [9] | EKill (log10 CFU/lung reduction versus count at initial treatment time) ([10]; 30 mg/kg i.v.) | log10 CFU/lung reduction (EMax, versus control at 24 hours) ([10]; highest dose level 30 mg/kg i.v.) | ED50 ([8]; Enterococcus faecalis, read-out: ED50 in Mice, E. faecalis (EFS0040))
CCCCCCCCCCCCCCC(=O)NC(CC(=O)O)C(=O)NC1C(=O)N2CCCCC2C(=O)NC(C(C)C(=O)O)C(=O)NC(CC(=O)O)C(=O)NCC(=O)NC(CC(=O)O)C(=O)NCC(=O)NC(C(C)NC(=O)CN)C(=O)NC(C(C)C)C(=O)N2CCCC2C(=O)NC1C (stereo not drawn) [Compound 3, C15-Amphomycin-9-Gly] | 50 to 200 mg/kg | 1.3 mg/kg | 4.9 mg/kg | 6.65 h | – | – | – | – | – | – | – | – | – | – | – | –
CCCCCCCCCCCCCCNC(=O)NC(CC(=O)O)C(=O)NC1C(=O)N2CCCCC2C(=O)NC(C(C)C(=O)O)C(=O)NC(CC(=O)O)C(=O)NCC(=O)NC(CC(=O)O)C(=O)NCC(=O)NC(C(C)NC(=O)CCN)C(=O)NC(C(C)C)C(=O)N2CCCC2C(=O)NC1C (stereo not drawn) [Compound 278, CH3—(CH2)13—NH—C(═O)-Amphomycin-9-(β-Ala)] | 200 to 400 mg/kg | – | 7.1 mg/kg | 7.45 h | 2 µg/mL | 1.5 h | 2.6 h | 2.2 h | 3.2 h | 7.08 h | 0.5 µg/mL | 5.3 mg/kg | – | – | – | –
CCCCCCCCCCCC(=O)Nc1ccc(C(=O)NC(CC(=O)O)C(=O)NC2C(=O)N3CCCCC3C(=O)NC(C(C)C(=O)O)C(=O)NC(CC(=O)O)C(=O)NCC(=O)NC(CC(=O)O)C(=O)NCC(=O)NC(C(C)NC(=O)CCN)C(=O)NC(C(C)C)C(=O)N3CCCC3C(=O)NC2C)cc1 (stereo not drawn) [Compound 280, C12-PABA-Amphomycin-9-(β-Ala)] | 200 to 400 mg/kg | – | 6.5 mg/kg | 5.75 h | – | 2.5 h | 1.5 h | 1.9 h | 2.4 h | 7.07 h | – | 2.1 mg/kg | 1.8 mg/kg | – | – | –
CC1(C)S[C@@H]2[C@H](NC(=O)[C@H](N)c3ccccc3)C(=O)N2[C@H]1C(=O)O [ampicillin, reference compound] | – | – | – | – | – | – | – | – | – | – | – | – | – | 1.8 log10 CFU/lung | 2.58 log10 CFU/lung | 4.2 mg/kg
aspartocin [reference compound] | – | 0.65 mg/kg | 5.4 mg/kg | – | – | – | – | – | – | – | – | – | – | – | – | –
